Tested on: Penicillium fellutanum
Assay: Activity of Penicillium fellutanum exo-beta-D-galactofuranosidase by spectrophotometry

Row | Compound | Km [µM]
1 | O=[N+]([O-])c1ccc(O[C@@H]2O[C@@H]([C@H](O)CO)[C@H](O)[C@H]2O)cc1 | 310
2 | CO[C@@H]1O[C@@H]([C@H](O)CO)[C@H](O)[C@H]1O | 2600
3 | OC[C@@H](O)[C@@H]1O[C@@H](OCc2ccccc2)[C@H](O)[C@H]1O | 3700

Biological target: not listed separately
Assay: Inhibition of Penicillium fellutanum exo-beta-D-galactofuranosidase by spectrophotometry

Row | Compound | IC50 [µM]
4 | Nc1ccc(S[C@@H]2O[C@@H]([C@H](O)CO)[C@H](O)[C@H]2O)cc1 | 80
5 | OC[C@@H](O)[C@@H]1O[C@@H](n2cc[nH]c2=S)[C@H](O)[C@H]1O | 1050
6 | O=[N+]([O-])c1ccc(S[C@@H]2O[C@@H]([C@H](O)CO)[C@H](O)[C@H]2O)cc1 | 600
7 | CO[C@H]1CNC(=S)N1[C@@H]1O[C@@H]([C@H](O)CO)[C@H](O)[C@H]1O | 100
8 | O=C1O[C@@H]([C@H](O)CO)[C@H](O)[C@H]1O | 20

— ChEMBL document CHEMBL1250421, “Synthesis of 5-deoxy-beta-D-galactofuranosides as tools for the characterization of beta-D-galactofuranosidases” (Bioorg Med Chem, 2010)
